Source: the NIST ThermoML archive (doi:10.1016/j.jct.2018.12.023)
± gives the expanded uncertainty stated by the source.

Conditions: Liquid, Ebulliometric method (Recirculating still)

CCO [ethanol]
vapor or sublimation pressure (351.45 K): 101.3 ± 1.6 kPa

CCOC(=O)CC [ethyl propanoate]
vapor or sublimation pressure (372.25 K): 101.3 ± 1.6 kPa

CCI [iodoethane]
vapor or sublimation pressure (345.5 K): 101.3 ± 1.6 kPa

CCC(=O)O [propanoic acid]
vapor or sublimation pressure (414.32 K): 101.3 ± 1.6 kPa
